From ChEMBL document CHEMBL3272309, “Potential central nervous system antitumor agents. Aziridinylbenzoquinones. 1” (J Med Chem, 1976)

Experiments:
[1] = Antitumor activity against mouse ependymoblastoma cells allografted in mouse assessed as mouse survival at 2 mg/kg, ip qd administered from day 1 to 5 post intracerebral tumor-implantation relative to control; assay type: functional; details: route intraperitoneal
[2] = Therapeutic ratio, ratio of highest active dose to lowest active for antitumor activity against in ip dosed mouse allografted with mouse B16 cells; assay type: ADME, organism-based; details: in vivo, read-out: TI
B16 = assay: Antitumor activity against mouse B16 cells allografted in mouse assessed as change in body weight at 0.78 mg/kg, ip qd administered from day 1 to 9 post ip tumor-implantation measured on day 5 relative to control; assay type: functional; details: route intraperitoneal
L1210 [3] = assay: Antitumor activity against mouse L1210 cells allografted in mouse assessed as change in body weight at 1.3 mg/kg, ip qd administered from day 1 to 9 post ip tumor-implantation measured on day 5 relative to control; assay type: functional; details: route intraperitoneal
Mus musculus = assay: Toxicity in mouse allografted with mouse P388 cells at 6.25 mg/kg, ip qd administered from day 1 to 9 post ip tumor-implantation; assay type: organism-based; parameters: dose 6.25 mg/kg, route intraperitoneal; details: in vivo
L1210 [4] = assay: Antitumor activity against mouse L1210 cells allografted in mouse assessed as mouse survival at 4.6 mg/kg, ip qd administered from day 1 to 9 post ip tumor-implantation relative to control; assay type: functional; details: route intraperitoneal
L1210 [5] = assay: Antitumor activity against mouse L1210 cells allografted in mouse assessed as mouse survival at 0.78 mg/kg, ip qd administered from day 1 to 9 post intracerebral tumor-implantation relative to control; assay type: functional; details: route intraperitoneal
L1210 [6] = assay: Antitumor activity against mouse L1210 cells allografted in mouse assessed as mouse survival at 3.12 mg/kg, ip qd administered from day 1 to 9 post ip tumor-implantation relative to control; assay type: functional; details: route intraperitoneal

**Q.** For `CCOC(=O)NC1=C(N2CC2)C(=O)C(NC(=O)OCC)=C(N2CC2)C1=O` [DIAZIQUONE], which T/C [1] is on record?
**A.** 271%

**Q.** What about the selectivity ratio [2] of the same molecule?
**A.** 3

**Q.** What about the Activity (B16) of the same molecule?
**A.** -2.2 g

**Q.** And the Activity (L1210 [3])?
**A.** -2.3 g

**Q.** And the Activity (Mus musculus)?
**A.** Toxic

**Q.** And the T/C (L1210 [4])?
**A.** 98%

**Q.** What about the T/C (L1210 [5]) of the same molecule?
**A.** 103%

**Q.** What about the T/C (L1210 [6]) of the same molecule?
**A.** 128%
